For one assay, the target named is EgtUA (Streptococcus pneumoniae, UniProt A0A0H2ZLL3).
The target in the next assay is T1, SaEgtUC (Staphylococcus aureus, UniProt A0A0H2XK79).
T1 construct: gene egtUBC; N-terminal His6-SUMO cleaved off; expressed in E. coli BL21(DE3)
T1 sequence (A0A0H2XK79 233-504): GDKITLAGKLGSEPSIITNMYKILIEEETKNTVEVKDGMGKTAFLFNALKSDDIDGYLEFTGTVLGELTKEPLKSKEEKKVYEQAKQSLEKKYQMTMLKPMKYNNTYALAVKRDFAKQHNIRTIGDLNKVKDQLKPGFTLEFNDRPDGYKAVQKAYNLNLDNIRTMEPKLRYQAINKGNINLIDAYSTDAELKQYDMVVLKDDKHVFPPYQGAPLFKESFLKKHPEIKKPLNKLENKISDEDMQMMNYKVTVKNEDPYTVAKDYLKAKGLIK
As to the kind of experiment: intrinsic tyrosine fluorescence titration. Format: binding. The following applies: read-out: Ka (M^-1) (converted). From the text:
intrinsic tyrosine fluorescence titration on SaEgtUC

The next assay concerns the target T2, LmEgtUC (Listeria monocytogenes, UniProt Q8Y775).
T2 construct: gene egtUBC; N-terminal His6-SUMO cleaved off; expressed in E. coli BL21(DE3); the lmo locus tag is of strain EGD-e, strain used printed as 10403S
As to the kind of experiment: intrinsic tyrosine fluorescence titration. Type of assay: binding. The following applies: read-out: Ka (M^-1) (converted). From the text:
intrinsic tyrosine fluorescence titration on LmEgtUC

A further assay has as its target T3, EfEgtUC (Enterococcus faecalis, UniProt Q837Z8).
T3 construct: gene egtUBC; N-terminal His6-SUMO cleaved off; expressed in E. coli BL21(DE3)
T3 sequence (Q837Z8 233-505): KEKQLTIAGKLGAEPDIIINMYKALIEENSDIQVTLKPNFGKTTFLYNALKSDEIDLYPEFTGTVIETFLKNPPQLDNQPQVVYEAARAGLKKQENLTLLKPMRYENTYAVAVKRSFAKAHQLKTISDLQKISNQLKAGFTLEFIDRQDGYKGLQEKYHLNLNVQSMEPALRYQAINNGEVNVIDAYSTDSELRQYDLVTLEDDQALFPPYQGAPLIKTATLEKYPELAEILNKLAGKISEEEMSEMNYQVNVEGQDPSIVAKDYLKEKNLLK
As to the kind of experiment: intrinsic tyrosine fluorescence titration. Format: binding. The following applies: read-out: Ka (M^-1) (converted). From the text: intrinsic tyrosine fluorescence titration on EfEgtUC

The target in assay [1] is T4, SpEgtUC (Streptococcus pneumoniae, UniProt A0A0H2ZQB9).
T4 construct: gene egtUBC; N-terminal His6-SUMO cleaved off; expressed in E. coli BL21(DE3); monomer
As to the kind of experiment: isothermal titration calorimetry. Format: binding. The following applies: read-out: Ka (M^-1) (converted). An excerpt: isothermal titration calorimetry on SpEgtUC
Background: In ITC the heat of successive injections is recorded.

Assay [2] has as its target T5, SpEgtUC (Streptococcus pneumoniae, UniProt A0A0H2ZQB9, G244F).
T5 construct: gene egtUBC
As to the kind of experiment: biochemical.

Assay [3] concerns the target T6, SpEgtUC (Streptococcus pneumoniae, UniProt A0A0H2ZQB9, Y419F).
T6 construct: gene egtUBC
Nature of the assay: biochemical.

Assay [4] deals with T7, SpEgtUC (Streptococcus pneumoniae, UniProt A0A0H2ZQB9, E375Q).
T7 construct: gene egtUBC
Nature of the assay: biochemical.

The next assay has as its target T8, SpEgtUCCTT (Streptococcus pneumoniae, UniProt A0A0H2ZQB9, G502V/L503C).
T8 construct: gene egtUBC
As to the kind of experiment: biochemical.

Assay [5] has as its target T9, SpEgtUC (Streptococcus pneumoniae, UniProt A0A0H2ZQB9, F293Y).
T9 construct: gene egtUBC
As to the kind of experiment: biochemical.

The target of assay [6] is T4, SpEgtUC. Nature of the assay: NMR chemical shift perturbation titration. Type of assay: binding. The following applies: read-out: Ka (M^-1) (converted). An excerpt:
NMR chemical shift perturbation titration on SpEgtUC

Each structure is given as a SMILES string. pKd: −log10 of the molar value.

T4 sequence (A0A0H2ZQB9 233-506): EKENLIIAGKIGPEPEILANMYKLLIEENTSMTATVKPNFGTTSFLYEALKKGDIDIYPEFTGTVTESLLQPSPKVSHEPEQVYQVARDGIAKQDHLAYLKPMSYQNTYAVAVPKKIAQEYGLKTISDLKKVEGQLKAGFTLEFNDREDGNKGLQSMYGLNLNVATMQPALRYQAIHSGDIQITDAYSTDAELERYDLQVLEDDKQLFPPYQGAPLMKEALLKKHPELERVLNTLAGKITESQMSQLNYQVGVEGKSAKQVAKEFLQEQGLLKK
T2 sequence (Q8Y775 231-504): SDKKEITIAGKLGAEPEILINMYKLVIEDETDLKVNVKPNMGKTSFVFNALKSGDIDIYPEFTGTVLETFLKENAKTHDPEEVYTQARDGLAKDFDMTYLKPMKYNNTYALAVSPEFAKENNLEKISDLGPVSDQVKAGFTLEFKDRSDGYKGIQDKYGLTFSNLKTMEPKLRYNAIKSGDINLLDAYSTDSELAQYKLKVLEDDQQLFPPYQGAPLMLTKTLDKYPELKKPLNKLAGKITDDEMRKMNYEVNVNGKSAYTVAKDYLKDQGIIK
Chain of EgtUA (A0A0H2ZLL3 whole entry): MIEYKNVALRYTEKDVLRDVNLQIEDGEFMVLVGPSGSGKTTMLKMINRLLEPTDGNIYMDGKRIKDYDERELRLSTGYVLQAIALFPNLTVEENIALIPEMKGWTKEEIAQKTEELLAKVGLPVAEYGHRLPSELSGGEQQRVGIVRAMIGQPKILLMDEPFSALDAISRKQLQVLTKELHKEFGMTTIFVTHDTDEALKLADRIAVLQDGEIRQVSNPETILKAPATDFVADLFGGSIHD
T7 sequence (A0A0H2ZQB9 233-506 E375Q): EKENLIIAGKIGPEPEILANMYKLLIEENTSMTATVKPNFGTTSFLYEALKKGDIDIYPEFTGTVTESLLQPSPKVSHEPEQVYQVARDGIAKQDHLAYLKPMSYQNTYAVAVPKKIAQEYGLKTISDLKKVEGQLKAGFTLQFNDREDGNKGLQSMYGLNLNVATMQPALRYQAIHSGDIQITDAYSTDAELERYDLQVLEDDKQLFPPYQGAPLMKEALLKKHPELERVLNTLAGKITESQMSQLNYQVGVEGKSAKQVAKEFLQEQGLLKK
T9 sequence (A0A0H2ZQB9 233-506 F293Y): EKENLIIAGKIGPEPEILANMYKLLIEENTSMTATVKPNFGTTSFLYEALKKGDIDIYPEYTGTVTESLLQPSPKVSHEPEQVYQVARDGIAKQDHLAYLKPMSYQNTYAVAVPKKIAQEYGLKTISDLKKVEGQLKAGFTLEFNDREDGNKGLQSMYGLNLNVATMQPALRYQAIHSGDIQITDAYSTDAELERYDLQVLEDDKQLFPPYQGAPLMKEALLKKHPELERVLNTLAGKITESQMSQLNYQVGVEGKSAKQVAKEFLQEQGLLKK
T5 sequence (A0A0H2ZQB9 233-506 G244F): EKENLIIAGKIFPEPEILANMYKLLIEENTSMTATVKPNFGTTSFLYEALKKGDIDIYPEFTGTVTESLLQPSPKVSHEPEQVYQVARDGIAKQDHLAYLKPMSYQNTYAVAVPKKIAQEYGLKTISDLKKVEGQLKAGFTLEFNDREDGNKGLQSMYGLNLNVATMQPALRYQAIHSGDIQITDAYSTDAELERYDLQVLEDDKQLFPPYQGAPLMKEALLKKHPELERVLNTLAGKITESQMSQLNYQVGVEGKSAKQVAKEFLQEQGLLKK
T6 sequence (A0A0H2ZQB9 233-506 Y419F): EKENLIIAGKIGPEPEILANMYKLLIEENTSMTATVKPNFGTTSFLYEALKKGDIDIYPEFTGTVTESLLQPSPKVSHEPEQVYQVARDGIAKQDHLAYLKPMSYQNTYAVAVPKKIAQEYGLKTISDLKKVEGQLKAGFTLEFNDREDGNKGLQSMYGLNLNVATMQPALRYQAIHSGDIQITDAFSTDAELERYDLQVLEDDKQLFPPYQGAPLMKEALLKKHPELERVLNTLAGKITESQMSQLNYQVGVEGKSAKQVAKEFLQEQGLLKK
T8 sequence (A0A0H2ZQB9 233-503 G502V/L503C): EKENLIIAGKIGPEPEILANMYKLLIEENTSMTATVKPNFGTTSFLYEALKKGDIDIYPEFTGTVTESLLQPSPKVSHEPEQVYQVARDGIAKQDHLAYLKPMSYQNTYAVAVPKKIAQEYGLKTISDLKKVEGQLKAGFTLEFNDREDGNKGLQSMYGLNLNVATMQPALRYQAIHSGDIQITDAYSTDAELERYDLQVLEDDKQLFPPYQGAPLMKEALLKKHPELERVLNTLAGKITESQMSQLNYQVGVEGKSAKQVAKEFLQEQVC

In the case of `Nc1ncnc2c1ncn2[C@@H]1O[C@H](COP(=O)(O)OP(=O)(O)OP(=O)(O)O)[C@@H](O)[C@H]1O` [ATP], the “in vitro ATPase activity” value on EgtUA is “ATPase activity of WT vs. mutant EgtUA proteins in vitro”.
As to `C[N+](C)(C)[C@@H](Cc1c[nH]c(=S)[nH]1)C(=O)[O-]` [ET, L-ergothioneine], the Kd on SaEgtUC was 0.217 µM; at LmEgtUC it was 0.0556 µM; on EfEgtUC, 0.0625 µM; at SpEgtUC [1] it was 0.0588 µM. The negative logarithm of the Kd (pKd) on SpEgtUC [2] was 5.30; on SpEgtUC [3], 6.20; on SpEgtUC [4] it was 4.60; on SpEgtUCCTT, 7.28; on SpEgtUC [5] it was 6.30.
With `C[N+](C)(C)CC(=O)[O-]` [GB, glycine betaine], the Kd on SpEgtUC [6] is over 33300 µM.
Take `C[N+](C)(C)[C@@H](Cc1cnc[nH]1)C(=O)[O-]` [HER, L-hercynine]: the Kd on SpEgtUC [6] is 1670 µM.

As a reminder, the pKd is the negative decadic logarithm of the Kd, by convention in mol/L. Low values mean a large Kd, high ones a small Kd.

These data come from paper PMC9732360, “Discovery and structure of a widespread bacterial ABC transporter specific for ergothioneine” (Nature Communications, 2022).
